Reference: ChEMBL document CHEMBL1121775, “Synthesis and antimalarial effects of N2-aryl-N4-[(dialkylamino)alkyl]- and N4-aryl-N2-[(dialkylamino)alkyl]-2,4-quinazolinediamines” (J Med Chem, 1981)
Several values for one entry are separate records, joined by “and”; a condition that tells them apart may be missing. Equal entries are not always repeated.

Assays:
Plasmodium berghei [1] = experiment: (§1) Antimalarial effect against trophozoite-induced Plasmodium berghei in mice (Mus musculus) at 640 mg/kg subcutaneous dose; format: functional
Plasmodium berghei [2] = experiment: Antimalarial effect against trophozoite-induced Plasmodium berghei in mice (Mus musculus) at 80 mg/kg subcutaneous dose; format: functional
Plasmodium berghei [3] = experiment: Antimalarial effect against trophozoite-induced Plasmodium berghei in mice (Mus musculus) at 160 mg/kg subcutaneous dose; format: functional
Plasmodium berghei [4] = experiment: Antimalarial effect against trophozoite-induced Plasmodium berghei in mice (Mus musculus) at 320 mg/kg subcutaneous dose; format: functional
Plasmodium berghei [5] = experiment: Antimalarial effect against trophozoite-induced Plasmodium berghei in mice (Mus musculus) after 40 mg/kg subcutaneous dose; format: functional
Plasmodium berghei [6] = experiment: as §1; format: functional; remark: listed apart in the source
Mus musculus [7] = experiment: Number of mice cured at a dose of 640 mg/kg sc; format: functional; conditions: route subcutaneous
Plasmodium berghei [8] = experiment: Antimalarial effect against trophozoite-induced Plasmodium berghei in mice (Mus musculus) after 20 mg/kg subcutaneous dose; format: functional
Mus musculus [9] = experiment: Number of mice cured at a subcutaneous dose of 320 mg/kg.; format: functional
Mus musculus [10] = experiment: Number of mice cured at a subcutaneous dose of 160 mg/kg.; format: functional
Plasmodium berghei [11] = experiment: Antimalarial activity against trophozoite-induced Plasmodium berghei in mice (Mus musculus) at 160 mg/kg subcutaneous dose; format: functional
Mus musculus [12] = experiment: Number of toxic deaths at a dose of 640 mg/kg; format: toxicity, organism-based; design: dose 640 mg/kg; conditions: in vivo
Plasmodium berghei [13] = experiment: Antimalarial activity against trophozoite-induced Plasmodium berghei in mice (Mus musculus); format: functional

Row | Structure (SMILES) | MST (Plasmodium berghei [2]) [days] | MST (Plasmodium berghei [3]; 160 mg/kg) | MST (Plasmodium berghei [4]) [days] | MST (Plasmodium berghei [1]) [days] | MST (Plasmodium berghei [8]) [days] | MST (Plasmodium berghei [5]) [days] | MST (Plasmodium berghei [3]) [days] | also measured
1 | CCN1CCCC(Nc2nc(Nc3ccc(C(F)(F)F)cc3)c3ccccc3n2)C1 (stereo not drawn) | -0.1 | 0.2 days and 0.3 days | 0.9 |  |  |  |  | MST (Plasmodium berghei [1]; 640 mg/kg): 3.4 days and 3.1 days
2 | CCN(CC)CCCC(C)Nc1nc(Nc2ccc(O)c(CN(CC)CC)c2)c2ccccc2n1 (stereo not drawn) | 1.4 | 3.8 days and 1.6 days | 7.4 | 5.6 | 0 |  |  | MST (Plasmodium berghei [5]; 40 mg/kg): 0.6 days and 0.2 days; MST (Plasmodium berghei [6]): 3.1 days; No. of survivals (Mus musculus [7]): 3
3 | CCN(CC)CCCC(C)Nc1nc(Nc2cc(OC)c(OC)c(OC)c2)c2ccccc2n1 (stereo not drawn) | -0.3 | 0.3 days and 0.6 days | 0.5 |  | 0.3 |  |  | MST (Plasmodium berghei [1]; 640 mg/kg): 3.5 days and 5 days
4 | CCN(CC)C1CCC(Nc2nc(Nc3ccc(SC)cc3)c3ccccc3n2)CC1 (stereo not drawn) |  |  | 11.7 |  |  | 0.7 | 5.7 | MST (Plasmodium berghei [2]; 80 mg/kg): 1.1 days and 1.3 days; MST (Plasmodium berghei [8]; 20 mg/kg): 0.5 days and 0.7 days
5 | Clc1ccc(Nc2nc(NCCCN3CCCCC3)nc3ccccc23)cc1Cl | -0.4 |  | 1.6 |  | -0.2 |  |  | MST (Plasmodium berghei [1]; 640 mg/kg): 3 days and 4.1 days
6 | CCN(CC)CCCNc1nc(Nc2cc(Cl)cc(Cl)c2)c2ccccc2n1 | 1.4 | 3 days and 2.7 days | 5 |  | 0.2 |  |  | MST (Plasmodium berghei [6]; 640 mg/kg): 14.5 days and 15.7 days; No. of survivals (Mus musculus [7]): 2
7 | CCN(CC)CCCC(C)Nc1nc(Nc2ccc(C(F)(F)F)cc2)c2ccccc2n1 (stereo not drawn) |  |  |  | 1.6 |  | -0.6 | 0 | 
8 | CCN(CC)C1CCC(Nc2nc(Nc3cccc(Br)c3)c3ccccc3n2)CC1 (stereo not drawn) |  | 10.3 days and 10.1 days |  |  |  |  |  | MST (Plasmodium berghei [5]; 40 mg/kg): 0.3 days and 0.5 days; MST (Plasmodium berghei [2]; 80 mg/kg): 2.5 days and 2.7 days; No. of survivals (Mus musculus [7]; 640 mg/kg): 3 and 2; MST (Plasmodium berghei [8]; 20 mg/kg): 0.3 days and 0.5 days; MST (Plasmodium berghei [4]; 320 mg/kg): 12.9 days and 12.7 days
9 | CCN(CC)C1CCC(Nc2nc(Nc3ccc(C(F)(F)F)cc3)c3ccccc3n2)CC1 (stereo not drawn) |  | 9.7 days and 9.5 days |  |  |  | 0.5 |  | MST (Plasmodium berghei [2]; 80 mg/kg): 0.7 days and 0.5 days; No. of survivals (Mus musculus [7]; 640 mg/kg): 3 and 2; No. of survivals (Mus musculus [9]): 5; MST (Plasmodium berghei [8]; 20 mg/kg): 0.5 days and 0.3 days
10 | CCN1CCCC(Nc2nc(Nc3cc(Cl)cc(Cl)c3)c3ccccc3n2)C1 (stereo not drawn) | 0.2 | 0.4 days and 0.3 days | 2.4 |  | 0.4 |  |  | MST (Plasmodium berghei [1]; 640 mg/kg): 4.4 days and 6.3 days; MST (Plasmodium berghei [5]; 40 mg/kg): 0.2 days and 0.1 days
11 | Clc1cc(Cl)cc(Nc2nc(NCCCN3CCCCC3)nc3ccccc23)c1 |  |  |  | 1.6 |  | 0.2 | 0.2 | 
12 | CCN1CCCC(Nc2nc(Nc3ccc(Cl)c(Cl)c3)nc3c(Cl)cc(Cl)cc23)C1 (stereo not drawn) |  |  |  |  | 0.3 | 0.3 | 0.5 | 
13 | CCN(CC)CCNc1nc(Nc2cc(Cl)c(Cl)cc2Cl)nc2ccccc12 |  |  |  | 1.2 |  | 0.4 | 0.4 | 
14 | OC1CCCN(CCCNc2nc(Nc3cccc4nsnc34)nc3ccccc23)C1 (stereo not drawn) |  |  |  | 0 |  | 0 | 0 | 
15 | CCN1CCC(CNc2nc(Nc3ccc(Cl)c(Cl)c3)c3ccccc3n2)CC1 |  |  |  |  |  | 2.1 |  | No. of survivals (Mus musculus [10]): 1; MST (Plasmodium berghei [2]; 80 mg/kg): 6.7 days and 6.9 days; No. of survivals (Mus musculus [7]): 5; No. of survivals (Mus musculus [9]): 5; MST (Plasmodium berghei [8]; 20 mg/kg): 0.5 days and 0.7 days; MST (Plasmodium berghei [11]): 6.94 days
16 | CN(C)c1ccc(Nc2nc(NC3CCC(N(C)C)CC3)nc3ccccc23)cc1 (stereo not drawn) |  |  |  | 1.1 |  | -0.2 | 0.6 | 
17 | c1ccc2c(NCCCN3CCCC3)nc(Nc3nccs3)nc2c1 |  |  |  |  |  | 0.3 | 0.3 | MST (Plasmodium berghei [6]): 0.9 days; No. of toxic deaths (Mus musculus [12]): 3

Row | Structure (SMILES) | MST (Plasmodium berghei [2]) [days] | MST (Plasmodium berghei [3]; 160 mg/kg) | MST (Plasmodium berghei [4]) [days] | MST (Plasmodium berghei [1]) [days] | MST (Plasmodium berghei [8]) [days] | MST (Plasmodium berghei [5]) [days] | MST (Plasmodium berghei [3]) [days] | also measured
18 | CCN(CC)C1CCC(Nc2nc(Nc3cc(Cl)cc(Cl)c3)c3ccccc3n2)CC1 (stereo not drawn) | 0.5 | 0.7 days and 0.5 days |  |  | 0.3 |  |  | MST (Plasmodium berghei [5]; 40 mg/kg): 0.5 days and 0.3 days; No. of survivals (Mus musculus [7]): 5; MST (Plasmodium berghei [4]; 320 mg/kg): 7.9 day and 8.1 MST
19 | CN(C)C1CCC(Nc2nc(Nc3cc(Cl)cc(Cl)c3)c3ccccc3n2)CC1 (stereo not drawn) | 1.2 |  |  |  | -0.2 | 0 | 2.6 | No. of survivals (Mus musculus [7]): 5
20 | CN(C)C1CCC(Nc2nc(Nc3ccc(C(F)(F)F)cc3)c3ccccc3n2)CC1 (stereo not drawn) |  |  |  | 0.7 |  | 1.1 | 0.7 | 
21 | CCN(CC)CCCC(C)Nc1nc(Nc2cc(Cl)cc(Cl)c2)c2ccccc2n1 (stereo not drawn) | -0.1 | 1.1 days and 1.2 days | 3.1 |  | 0.1 |  |  | MST (Plasmodium berghei [1]; 640 mg/kg): 4.9 days and 4.4 days
22 | CCN1CCCC(Nc2nc(Nc3ccc(Cl)c(Cl)c3)c3ccccc3n2)C1 (stereo not drawn) | 0.9 | 0.9 days and 2.2 days | 2.9 |  | 0.9 |  |  | MST (Plasmodium berghei [1]; 640 mg/kg): 9.5 days and 10.6 days
23 | CCN(CC)CCNc1nc(Nc2ccc(C(F)(F)F)cc2)c2ccccc2n1 | -0.2 |  | 2.8 |  | 0.2 |  |  | MST (Plasmodium berghei [1]; 640 mg/kg): 5.3 days and 5.5 days
24 | CCN(CC)CCCC(C)Nc1nc(Nc2ccc(Cl)c(Cl)c2)c2ccccc2n1 (stereo not drawn) | 0.3 |  | 1.3 |  | 0.1 |  |  | MST (Plasmodium berghei [1]; 640 mg/kg): 4.7 days and 5.8 days; MST (Plasmodium berghei [5]; 40 mg/kg): 0.3 days and 0.4 days
25 | CN(C)C1CCC(Nc2nc(Nc3cccc(Br)c3)c3ccccc3n2)CC1 (stereo not drawn) |  |  |  | 0.7 |  | -0.1 | 0.7 | 
26 | Clc1cc(Cl)cc(Nc2nc(NCCCN3CCCC3)nc3ccccc23)c1 |  |  |  | 1.2 |  | 0.4 | 0.8 | 
27 | CCN(CC)C1CCC(Nc2nc(Nc3ccc(Cl)c(Cl)c3)c3ccccc3n2)CC1 (stereo not drawn) |  |  |  |  | 0.3 | 0.5 |  | No. of survivals (Mus musculus [10]; 160 mg/kg): 1 and 2; MST (Plasmodium berghei [2]; 80 mg/kg): 2.9 days and 3.1 days; No. of survivals (Mus musculus [7]): 5; No. of survivals (Mus musculus [9]): 3; MST (Plasmodium berghei [11]; 160 mg/kg): 17.2 days and 15.6 days; MST (Plasmodium berghei [4]; 320 mg/kg): 14.4 days and 14.9 days
28 | CN1CCCC1CCNc1nc(Nc2ccc(C(F)(F)F)cc2)c2ccccc2n1 (stereo not drawn) | 0.5 | 1.5 days and 1.7 days |  | 7.7 | 0.3 | 0.3 |  | MST (Plasmodium berghei [4]; 320 mg/kg): 4.1 days and 4.3 days
29 | FC(F)(F)c1ccc(Nc2nc(NCCCN3CCCCC3)nc3ccccc23)cc1 |  |  |  | 2.4 |  | -0.2 | -0.2 | 
30 | CCN(CC)CCCNc1nc(Nc2ccc(C(F)(F)F)cc2)c2ccccc2n1 | 0.8 | 0.6 days and 0.3 days | 9.2 |  | 0 |  |  | MST (Plasmodium berghei [1]; 640 mg/kg): 10.1 days and 7.5 days
31 | CCN1CCCC(Nc2nc(Nc3ccc(Cl)c(Cl)c3)nc3ccc([N+](=O)[O-])cc23)C1 (stereo not drawn) |  |  |  |  |  |  |  | SD90 (Plasmodium berghei [13]): 34 mg/kg/day
32 | CCN(CC)CCCNc1nc(Nc2ccc(Cl)c(Cl)c2)c2ccccc2n1 | 2.8 | 4.6 days and 5.2 days | 8.4 |  | 0 |  |  | MST (Plasmodium berghei [6]; 640 mg/kg): 9.8 days and 10.5 days; No. of survivals (Mus musculus [7]): 1
33 | CCN1CCC(CNc2nc(Nc3cc(Cl)cc(Cl)c3)c3ccccc3n2)CC1 |  | 5.7 days and 5.9 days |  |  |  | 0.5 |  | MST (Plasmodium berghei [2]; 80 mg/kg): 2.5 days and 2.7 days; No. of survivals (Mus musculus [7]; 640 mg/kg): 3 and 2; No. of survivals (Mus musculus [9]; 320 mg/kg): 3 and 2; MST (Plasmodium berghei [8]; 20 mg/kg): 0.5 days and 0.3 days
